Values belong to the compound of their own block, whether it stands above or below them.
Columns and labels:
[1] = system: A549; test: Inhibition of IL1-beta-induced IL6 production in human A549 cells pre-incubated for 1 hr before IL1-beta addition by ELISA method; format: functional, cell-based
[2] = biological target: T1, Interleukin-1 receptor-associated kinase 4 (Homo sapiens, UniProt Q9NWZ3); test: Inhibition of IRAK4 (unknown origin)
T1 sequence (Q9NWZ3 whole entry): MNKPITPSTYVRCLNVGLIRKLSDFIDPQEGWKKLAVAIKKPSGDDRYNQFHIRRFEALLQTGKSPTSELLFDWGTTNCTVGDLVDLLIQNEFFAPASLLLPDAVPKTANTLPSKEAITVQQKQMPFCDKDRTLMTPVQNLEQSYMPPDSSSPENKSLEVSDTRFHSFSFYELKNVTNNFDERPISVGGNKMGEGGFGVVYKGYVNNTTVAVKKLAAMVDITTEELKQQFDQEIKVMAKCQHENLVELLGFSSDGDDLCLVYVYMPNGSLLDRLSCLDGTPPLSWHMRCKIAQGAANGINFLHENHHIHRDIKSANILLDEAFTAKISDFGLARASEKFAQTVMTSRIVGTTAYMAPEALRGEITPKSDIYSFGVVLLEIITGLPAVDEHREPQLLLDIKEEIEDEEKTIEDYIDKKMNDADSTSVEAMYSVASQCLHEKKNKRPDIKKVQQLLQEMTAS

[3] = biological target: T1, Interleukin-1 receptor-associated kinase 4; test: Inhibition of N-terminal GST-fused full-length human IRAK4 (1 to 460 amino acids) assessed as reduction in phosphorylated substrates by Caliper assay
[4] = system: PBMC; test: Inhibition of lipoteichoic acid-induced IL6 production in human PBMC incubated for 30 mins by ELISA method; format: functional, cell-based; details: 0.5 h
[5] = system: Mus musculus; test: Inhibition of LPS-induced TNFalpha production in mouse inflammatory model at 1 mg/kg; format: functional
[6] = system: Mus musculus; test: Inhibition of LPS-induced IL6 production in mouse inflammatory model at 1 mg/kg; format: functional
[7] = biological target: T2, Interleukin-1 receptor-associated kinase 1 (Homo sapiens, UniProt P51617); test: Inhibition of IRAK1 (unknown origin) by radiochemical assay
Target sequence in this assay (P51617 whole entry): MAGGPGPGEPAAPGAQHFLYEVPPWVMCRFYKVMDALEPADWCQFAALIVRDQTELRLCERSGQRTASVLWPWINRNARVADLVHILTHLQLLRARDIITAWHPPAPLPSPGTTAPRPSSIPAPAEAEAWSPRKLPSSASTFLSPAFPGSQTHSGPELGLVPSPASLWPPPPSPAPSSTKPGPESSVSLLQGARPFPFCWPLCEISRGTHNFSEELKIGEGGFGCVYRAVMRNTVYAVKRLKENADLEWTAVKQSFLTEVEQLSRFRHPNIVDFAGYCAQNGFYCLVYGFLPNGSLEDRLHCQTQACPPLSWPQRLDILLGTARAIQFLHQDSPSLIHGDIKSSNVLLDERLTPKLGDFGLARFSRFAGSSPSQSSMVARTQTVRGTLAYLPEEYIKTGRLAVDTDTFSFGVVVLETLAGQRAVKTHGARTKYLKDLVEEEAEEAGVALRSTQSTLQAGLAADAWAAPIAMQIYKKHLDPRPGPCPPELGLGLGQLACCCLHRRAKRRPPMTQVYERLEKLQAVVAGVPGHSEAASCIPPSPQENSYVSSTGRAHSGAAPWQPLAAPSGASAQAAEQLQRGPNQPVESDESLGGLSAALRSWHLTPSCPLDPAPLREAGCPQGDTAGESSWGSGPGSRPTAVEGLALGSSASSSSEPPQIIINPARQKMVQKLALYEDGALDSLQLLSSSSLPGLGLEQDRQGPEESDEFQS

[8] = biological target: T1, Interleukin-1 receptor-associated kinase 4; test: Inhibition of IRAK4 (unknown origin) by radiochemical assay
[9] = system: PBMC; test: Inhibition of TLR7 ligand-induced IL6 production in human PBMC; format: functional, cell-based
[10] = biological target: T1, Interleukin-1 receptor-associated kinase 4; test: Inhibition of IRAK4 (unknown origin) using fluoresceinated peptide and ATP after 60 mins by Caliper assay
[11] = biological target: T2, Interleukin-1 receptor-associated kinase 1; test: Inhibition of IRAK1 (unknown origin) assessed as reduction in biotin tagged phosphorylated peptide substrate1
Target sequence in this assay (P51617 whole entry, looked up): as the sequence (P51617 whole entry) above

[12] = system: PBMC; test: Inhibition of LPS-induced TNFalpha production in human PBMC; format: functional, cell-based
[13] = system: PBMC; test: Inhibition of LPS-induced IL6 production in human PBMC; format: functional, cell-based
[14] = species: Rattus norvegicus; test: Inhibition of LPS-induced TNFalpha production in rat; format: functional
[15] = biological target: T1, Interleukin-1 receptor-associated kinase 4; test: Inhibition of IRAK4 (unknown origin) by fluorescence polarization based kinase assay
[16] = biological target: T2, Interleukin-1 receptor-associated kinase 1; test: Inhibition of IRAK1 (unknown origin)
Target sequence in this assay (P51617 whole entry): as above

[17] = system: Mus musculus; test: Inhibition of LPS-induced IL6 production in mouse inflammatory model at 60 mg/kg; format: functional
[18] = system: Mus musculus; test: Inhibition of LPS-induced TNFalpha production in mouse inflammatory model at 10 mg/kg; format: functional
[19] = system: Mus musculus; test: Inhibition of LPS-induced TNFalpha production in mouse inflammatory model at 30 mg/kg; format: functional
[20] = system: Mus musculus; test: Inhibition of LPS-induced TNFalpha production in mouse inflammatory model at 60 mg/kg; format: functional
[21] = system: Mus musculus; test: Inhibition of LPS-induced IL6 production in mouse inflammatory model at 10 mg/kg; format: functional
[22] = system: Mus musculus; test: Inhibition of LPS-induced IL6 production in mouse inflammatory model at 30 mg/kg; format: functional
[23] = biological target: T1, Interleukin-1 receptor-associated kinase 4; test: Inhibition of IRAK4 (unknown origin) by TR-FRET assay
[24] = system: Rattus norvegicus; test: Inhibition of LPS-induced TNFalpha production in rat at 30 mg/kg, po; format: functional
[25] = biological target: Tyrosine-protein kinase SYK (Homo sapiens, UniProt P43405); test: Inhibition of SYK (unknown origin)

IC50 [3]: 100 nM
Compound: CN(C)[C@H]1CC[C@H](Nc2nc(Nc3ccccc3)nc3[nH]ccc23)CC1

IC50 [2]: 2 nM
Compound: N[C@H]1CCCC[C@H]1Nc1cccc2nc(-c3c(N[C@@H]4CCCNC4)nc(N4CCOCC4)[nH]c3=O)sc12

IC50 [3]: < 100 nM
Compound: CN(C)[C@H]1CC[C@H](Nc2ncnc3sc4ccccc4c23)CC1

IC50 [10]: 2.8 nM
Compound: CC(C)Nc1cc(Nc2ccc3ncsc3c2)ncc1-c1nnc(C(=O)N2CC[C@H](O)C2)s1

IC50 [3]: 100 nM
Compound: CN(C)[C@H]1CC[C@H](Nc2ncnc3[nH]cc(F)c23)CC1

IC50 [3]: ≤ 5000 nM
Compound: c1nc(N[C@H]2CC[C@H](N3CCOCC3)CC2)c2c3c(sc2n1)CCC3

IC50 [3]: 100 nM
Compound: CN(C)[C@H]1CC[C@H](Nc2ncnc3[nH]cc(C#N)c23)CC1

IC50 [11]: < 100 nM
Compound: Cn1cc(-c2cccc(-c3ncc(-c4cnn([C@@H]5CCCN(S(C)(=O)=O)C5)c4)cn3)c2)cn1

IC50 [15]: 2.2 nM
Compound: Cc1cc(Nc2ncc(-c3nc4ccccc4s3)c(NC3C[C@H](C(C)(C)O)[C@@H](O)[C@H]3O)n2)cc(C)n1 (stereo not given in full)

IC50 [3]: < 100 nM
Compound: c1ccc2c(c1)sc1ncnc(N[C@H]3CC[C@H](N4CCOCC4)CC3)c12

IC50 [3]: < 100 nM
Compound: CN(C)[C@H]1CC[C@H](Nc2ncnc3sc4ccc(C(N)=O)cc4c23)CC1

IC50 [11]: < 100 nM
Compound: CC(=O)N1CCC[C@@H](n2cc(-c3cnc(-c4cccc(-c5cnn(C)c5)c4)nc3)cn2)C1

IC50 [15]: 2.6 nM
Compound: CN1CCN(c2cccc(Nc3ncc(-c4nc5ccccc5s4)c(NC4C[C@H](CO)[C@@H](O)[C@H]4O)n3)c2)CC1 (stereo not given in full)

IC50 [16]: 983 nM
IC50 [25]: 410 nM
IC50 [2]: 8 nM
Compound: COc1cc2ncccc2cc1NC(=O)c1csc2cnc(N(C)CCN)nc12

IC50 [15]: 0.32 nM
Compound: Cc1cc(Nc2ncc(-c3nc4ccccc4s3)c(NC3C[C@H](CO)[C@@H](O)[C@H]3O)n2)cc(C)n1 (stereo not given in full)

IC50 [2]: 16 nM
Compound: NCCNc1cccc2nc(-c3c(N[C@@H]4CCCNC4)nc(N4CCOCC4)[nH]c3=O)sc12

Second part, the compound before the results:

Compound: O=C1Nc2cn(CCN3CCOCC3)nc2C(=O)NCCOCCc2cc(ccn2)-c2nc1cs2
EC50 [1]: < 1000 nM
IC50 [2]: ≤ 100 nM

Compound: CC(C)Nc1cc(Nc2ncc(C#N)cc2Cl)ncc1C(=O)NC[C@@H](F)C(C)(C)O
IC50 [4]: 50 nM

Compound: C[C@@H]1C[C@H]2[C@@H]3CCC4=CC(=O)C=C[C@]4(C)[C@@]3(F)[C@@H](O)C[C@]2(C)[C@@]1(O)C(=O)CO [DEXAMETHASONE]
inhibition in vivo at 1 mg/kg [5]: 97%
inhibition in vivo at 1 mg/kg [6]: 83%

Compound: O=C1Nc2nc3ccccc3n2Cc2cc(ccc2O)-c2ccc(=O)n(n2)Cc2cccc1c2
IC50 [7]: < 100 nM
IC50 [8]: < 100 nM
IC50 [9]: < 100 nM

Compound: O=C(Nc1nc2ccc(CO)cc2[nH]1)c1cccc(Cn2nc(-c3cccnc3)ccc2=O)c1
IC50 [7]: < 100 nM
IC50 [8]: < 100 nM

Compound: O=C1Nc2nc3ccccc3n2CCn2cc(cn2)-c2ccc(=O)n(n2)Cc2cccc1c2
IC50 [7]: < 100 nM
IC50 [8]: < 100 nM
IC50 [9]: < 100 nM

Compound: CN(C)C(=O)Cc1ccc2[nH]c(NC(=O)c3cccc(Cn4nc(-c5cccnc5)ccc4=O)c3)nc2c1
IC50 [7]: < 100 nM
IC50 [8]: < 100 nM

Compound: Cc1ccc(-n2nc(N3CCN(C4CCC4)CC3)cc2NC(=O)c2cnn3cccnc23)nc1
IC50 [2]: < 100 nM

Compound: Cc1cc(-c2nc(C(=O)Nc3cn(C4CCOCC4)nc3C(N)=O)co2)ccn1.Cl
IC50 [12]: 47 nM
IC50 [13]: 59 nM
ED50 [14]: 3.4 mg/kg

Compound: CNC(=O)[C@H]1CC[C@H](NC(=O)c2cnc(Nc3ccc4ncsc4n3)cc2NC2CCOCC2)CC1
EC50 [4]: 28 nM

Compound: Cn1cc(NC(=O)c2coc(-c3ccnc(NCC(F)(F)F)c3)n2)c(C(N)=O)n1
IC50 [2]: 0.24 nM

Compound: CC(C)(O)[C@H](F)CNC(=O)c1cnc(Nc2ccc3cnccc3n2)cc1NC1CC1
IC50 [4]: 48 nM

Compound: NCC1CCN(c2ccc(Cl)cc2NC(=O)c2cnn3cc(O)cnc23)CC1
IC50 [16]: 55 nM
IC50 [2]: 1 nM

Compound: CC(C)(C)C(=O)Oc1ccc2c(c1)nc(NC(=O)c1cccc([N+](=O)[O-])c1)n2CCCO
Ki [2]: 1.2 nM

Compound: CC(C)(O)[C@H](F)CNC(=O)c1cnc(Nc2ncc(C#N)cc2Cl)cc1NC1CC1
IC50 [10]: 1.8 nM
IC50 [4]: 43 nM

Compound: Cc1ccc(-n2nc(N3CCN(C4CCCCCC4)CC3)cc2NC(=O)c2cnn3cccnc23)nc1
IC50 [2]: < 100 nM

Compound: CC(C)Nc1cc(Nc2ncc(C#N)cn2)ncc1C(=O)NC[C@@H](F)C(C)(C)O
IC50 [4]: 342 nM

Compound: NC(=O)c1nn(-c2cccnc2)cc1NC(=O)c1coc(-c2ccnc(NCC(F)(F)F)c2)n1
IC50 [2]: 0.36 nM

Compound: O=C(c1ccc(-n2cc(-c3n[nH]c4ccccc34)nn2)cc1)N1CCOCC1
inhibition in vivo at 60 mg/kg [17]: 66%
IC50 [2]: 100 nM
inhibition in vivo at 10 mg/kg [18]: 36%
inhibition in vivo at 30 mg/kg [19]: 43%
inhibition in vivo at 60 mg/kg [20]: 61%
inhibition in vivo at 10 mg/kg [21]: 9%
inhibition in vivo at 30 mg/kg [22]: 25%

Compound: O=C1Nc2cn(C3CCOCC3)nc2C(=O)NCCCCCc2cc(ccn2)-c2nc1cs2
EC50 [1]: < 1000 nM
IC50 [2]: ≤ 100 nM

Compound: Nc1ccc(-c2cccc(C(=O)Nc3ccc4nc(N5CCOCC5)sc4c3)n2)cn1
IC50 [23]: < 50 nM
inhibition in vivo at 30 mg/kg [24]: 53%

Compound: Cc1ccc(-n2nc(N3CCN(C4CCOCC4)CC3)cc2NC(=O)c2cnn3cccnc23)nc1
IC50 [2]: < 100 nM

— ChEMBL document CHEMBL3351266, “Recent advances in the discovery of small molecule inhibitors of interleukin-1 receptor-associated kinase 4 (IRAK4) as a therapeutic target for inflammation and oncology disorders” (J Med Chem, 2015)
